Reference: US10047086B2, “Imidazopyridines and imidazopyrazines as LSD1 inhibitors” (Incyte Corporation, priority 2014, dated 2018)

Target: LSD-1 enzyme (Homo sapiens (Human), UniProt O60341)
Test: LANCE LSD1/KDM1A demethylase assay (LSD1 histone demethylase biochemical assay)
Conditions: 1 nM LSD-1 enzyme, 1 hour preincubation at 25° C., 0.4 μM Biotin-labeled Histone H3 peptide substrate

SMILES | IC50 [nM]
COCCN1CCC[C@@H](COc2cc(-c3ccc(C#N)cc3)c(-c3cnc4c(c3)OCCO4)n3cncc23)C1 [Example 115, (R)-4-(5-(2,3-dihydro-[1,4]dioxino[2,3-b]pyridin-7-yl)-8-((1-(2-methoxyethyl)piperidin-3-yl)methoxy)imidazo[1,5-a]pyridin-6-yl)benzonitrile] | ≤ 50
CN1CCC[C@@H](COc2cc(-c3ccc(C#N)cc3)c(-c3cnc4c(c3)OCCN4C)n3cncc23)C1 [Example 116, (R)-4-(5-(4-methyl-3,4-dihydro-2H-pyrido[3,2-b][1,4]oxazin-7-yl)-8-((1-methylpiperidin-3-yl)methoxy)imidazo[1,5-a]pyridin-6-yl)benzonitrile] | ≤ 50
CC(O)CN1CCC[C@@H](COc2cc(-c3ccc(C#N)cc3)c(-c3ccc4nccnc4c3)n3cncc23)C1 (stereo partly drawn) [Example 120, 4-(8-(((3R)-1-(2-hydroxypropyl)piperidin-3-yl)methoxy)-5-(quinoxalin-6-yl)imidazo[1,5-a]pyridin-6-yl)benzonitrile] | ≤ 50
COCCN1CCC[C@@H](COc2cc(-c3ccc(C#N)cc3)c(-c3cnc4ccoc4c3)n3cncc23)C1 [Example 121, 4-(5-furo[3,2-b]pyridin-6-yl-8-{[(3R)-1-(2-methoxyethyl)piperidin-3-yl]methoxy}imidazo[1,5-a]pyridin-6-yl)benzonitrile] | ≤ 50
COCCN1CCC[C@@H](COc2cc(-c3ccc(C#N)cc3)c(-c3cnc4c(c3)CCCO4)n3cncc23)C1 [Example 122, (R)-4-(5-(3,4-dihydro-2H-pyrano[2,3-b]pyridin-6-yl)-8-((1-(2-methoxyethyl)piperidin-3-yl)methoxy)imidazo[1,5-a]pyridin-6-yl)benzonitrile] | ≤ 50
CC(O)c1ccc(-c2c(-c3ccc(C#N)cc3)cc(OC[C@@H]3CCCN(C)C3)c3cncn23)cc1 (stereo partly drawn) [Example 123, 4-(5-[4-(1-hydroxyethyl)phenyl]-8-{[(3R)-1-methylpiperidin-3-yl]methoxy}imidazo[1,5-a]pyridin-6-yl)benzonitrile] | ≤ 50
Cc1ccc(-c2c(-c3ccc(C#N)cc3)cc(OC[C@@H]3CCCN(C)C3)c3cncn23)cn1 [Example 125, 4-[8-{[(3R)-1-methylpiperidin-3-yl]methoxy}-5-(6-methylpyridin-3-yl)imidazo[1,5-a]pyridin-6-yl]benzonitrile] | ≤ 50
Cc1cc(-c2c(-c3ccc(C#N)cc3)cc(OC[C@@H]3CCCN(C)C3)c3cncn23)cc(F)c1C(C)O (stereo partly drawn) [Example 126, 4-(5-[3-fluoro-4-(1-hydroxyethyl)-5-methylphenyl]-8-{[(3R)-1-methylpiperidin-3-yl]methoxy}imidazo[1,5-a]pyridin-6-yl)benzonitrile] | ≤ 50
Cc1ncc(-c2c(-c3ccc(C#N)cc3)cc(OC[C@@H]3CCCN(C)C3)c3cncn23)cc1F [Example 127, 4-(5-(5-fluoro-6-methylpyridin-3-yl)-8-{[(3R)-1-methylpiperidin-3-yl]methoxy}imidazo[1,5-a]pyridin-6-yl)benzonitrile] | ≤ 50
CCN1CCC[C@@H](COc2cc(-c3ccc(C#N)cc3)c(-c3cc(C)c(CO)c(F)c3)n3cncc23)C1 [Example 128, 4-{8-{[(3R)-1-ethylpiperidin-3-yl]methoxy}-5-[3-fluoro-4-(hydroxymethyl)-5-methylphenyl]imidazo[1,5-a]pyridin-6-yl}benzonitrile] | ≤ 50
COCCN1CCC[C@@H](COc2cc(-c3ccc(C#N)cc3)c(-c3cc(C)c(CO)c(F)c3)n3cncc23)C1 [Example 129, 4-(5-[3-fluoro-4-(hydroxymethyl)-5-methylphenyl]-8-{[(3R)-1-(2-methoxyethyl)piperidin-3-yl]methoxy}imidazo[1,5-a]pyridin-6-yl)benzonitrile] | ≤ 50
COCCN1CCC[C@@H](COc2cc(-c3ccc(C#N)cc3)c(-c3cnc(C)c(C)c3)n3cncc23)C1 [Example 130, 4-(5-(5,6-dimethylpyridin-3-yl)-8-{[(3R)-1-(2-methoxyethyl)piperidin-3-yl]methoxy}imidazo[1,5-a]pyridin-6-yl)benzonitrile] | ≤ 50
CCN1CCC[C@@H](COc2cc(-c3ccc(C#N)cc3)c(-c3cnc(C)c(C)c3)n3cncc23)C1 [Example 131, 4-(5-(5,6-dimethylpyridin-3-yl)-8-{[(3R)-1-ethylpiperidin-3-yl]methoxy}imidazo[1,5-a]pyridin-6-yl)benzonitrile] | ≤ 50
CN1CCC[C@@H](COc2cc(-c3ccc(C#N)cc3)c(-c3cnn(C4CCC4)c3)n3cncc23)C1 [Example 134, 4-(5-(1-cyclobutyl-1H-pyrazol-4-yl)-8-{[(3R)-1-methylpiperidin-3-yl]methoxy}imidazo[1,5-a]pyridin-6-yl)benzonitrile] | ≤ 50
CN1C(=O)CCc2cc(-c3c(-c4ccc(C#N)cc4)nc(N4CCC(N(C)C)CC4)c4cncn34)ccc21 [Example 137, 4-[8-[4-(dimethylamino)piperidin-1-yl]-5-(1-methyl-2-oxo-1,2,3,4-tetrahydroquinolin-6-yl)imidazo[1,5-a]pyrazin-6-yl]benzonitrile] | ≤ 50
CN(C)C1CCN(c2nc(-c3ccc(C#N)cc3)c(-c3cc(F)c4c(c3)n(C)c(=O)n4C)n3cncc23)CC1 [Example 138, 4-(8-(4-(dimethylamino)piperidin-1-yl)-5-(7-fluoro-1,3-dimethyl-2-oxo-2,3-dihydro-1H-benzo[d]imidazol-5-yl)imidazo[1,5-a]pyrazin-6-yl)benzonitrile] | ≤ 50
CN(C)C1CCN(c2nc(-c3ccc(C#N)cc3)c(-c3cnn(C4CCC4)c3)n3cncc23)CC1 [Example 139, 4-{5-(1-cyclobutyl-1H-pyrazol-4-yl)-8-[4-(dimethylamino)piperidin-1-yl]imidazo[1,5-a]pyrazin-6-yl}benzonitrile] | ≤ 50
Cc1ncc(-c2c(-c3ccc(C#N)cc3)nc(N3CCC(N(C)C)CC3)c3cncn23)cc1CO [Example 142, 4-{8-[4-(dimethylamino)piperidin-1-yl]-5-[5-(hydroxymethyl)-6-methylpyridin-3-yl]imidazo[1,5-a]pyrazin-6-yl}benzonitrile] | ≤ 50
CN(C)C1CCN(c2nc(-c3ccc(C#N)cc3)c(-c3ccc4c(c3)nc(C(F)F)n4C)n3cncc23)CC1 [Example 143, 4-{5-[2-(difluoromethyl)-1-methyl-1H-benzimidazol-5-yl]-8-[4-(dimethylamino)piperidin-1-yl]imidazo[1,5-a]pyrazin-6-yl}benzonitrile] | ≤ 50
CN(C)C1CCN(c2nc(-c3ccc(C#N)cc3)c(-c3cnc4ccccc4c3)n3cncc23)CC1 [Example 144, 4-{8-[4-(dimethylamino)piperidin-1-yl]-5-quinolin-3-ylimidazo[1,5-a]pyrazin-6-yl}benzonitrile] | ≤ 50
CN(C)C1CCN(c2nc(-c3ccc(C#N)cc3)c(-c3ccc4ncccc4c3)n3cncc23)CC1 [Example 145, 4-{8-[4-(dimethylamino)piperidin-1-yl]-5-quinolin-6-ylimidazo[1,5-a]pyrazin-6-yl}benzonitrile] | ≤ 50
COc1ncc(-c2c(-c3ccc(C#N)cc3)nc(N3CCC(N(C)C)CC3)c3cncn23)cc1C#N [Example 148, 5-{6-(4-cyanophenyl)-8-[4-(dimethylamino)piperidin-1-yl]imidazo[1,5-a]pyrazin-5-yl}-2-methoxynicotinonitrile] | ≤ 50
Cc1cc(-c2c(-c3ccc(C#N)cc3)nc(N3CCC(N(C)C)CC3)c3cncn23)ccc1CO [Example 149, 4-{8-[4-(dimethylamino)piperidin-1-yl]-5-[4-(hydroxymethyl)-3-methylphenyl]imidazo[1,5-a]pyrazin-6-yl}benzonitrile] | ≤ 50
Cc1nc2cc(-c3c(-c4ccc(C#N)cc4)cc(OC[C@@H]4CCCN(C)C4)c4cncn34)ccc2n1C [Example 153, 4-(5-(1,2-dimethyl-1H-benzimidazol-5-yl)-8-{[(3R)-1-methylpiperidin-3-yl]methoxy}imidazo[1,5-a]pyridin-6-yl)benzonitrile] | ≤ 50
